Results from ChEMBL document CHEMBL1201862, “PubChem BioAssay data set” (2004).
Calls of active or inactive are those of the source. Rule as the data show it, for most assays here: actives have a measured EC50 and inactives only a lower limit.

Assays:
[1] = test system: H4; test: Luminescence Cell-Based Dose Response HTS to Identify Activators of 5'UTR Stem-Loop Driven Prion Protein mRNA Translation in H4 Neuroglioblastoma Cells. [Related pubchem assays: 1829 (Project Summary), 1814 (Primary HTS)]; assay type: functional; details: Homo sapiens
[2] = Luminescence Cell-Based Dose Response HTS to Identify Activators of Luciferase Translation or Activity in H4 […] Cells. [Related pubchem assays: 1829 (Project Summary), 1814 (Primary HTS)]; assay type: functional
[3] = biological target: T1, Corticotropin-releasing factor receptor 2/Corticotropin-releasing factor-binding protein (Homo sapiens, UniProt P24387+Q13324); test: Dose Response confirmation of uHTS hits for small molecule antagonists of the CRF-binding protein and CRF-R2 receptor complex.; assay type: functional; details: read-out: IC50_Mean
T1 sequence (Q13324 whole entry): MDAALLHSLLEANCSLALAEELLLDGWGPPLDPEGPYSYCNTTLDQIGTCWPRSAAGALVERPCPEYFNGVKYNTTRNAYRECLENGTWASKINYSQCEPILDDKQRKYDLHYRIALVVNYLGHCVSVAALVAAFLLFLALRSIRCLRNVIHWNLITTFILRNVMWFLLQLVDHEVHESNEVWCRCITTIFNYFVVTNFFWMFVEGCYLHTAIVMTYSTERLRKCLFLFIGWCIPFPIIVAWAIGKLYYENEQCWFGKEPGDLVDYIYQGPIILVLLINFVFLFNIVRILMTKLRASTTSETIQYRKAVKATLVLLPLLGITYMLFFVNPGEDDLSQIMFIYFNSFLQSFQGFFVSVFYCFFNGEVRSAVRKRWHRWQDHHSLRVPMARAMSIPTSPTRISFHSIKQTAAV
T1 sequence (P24387 whole entry): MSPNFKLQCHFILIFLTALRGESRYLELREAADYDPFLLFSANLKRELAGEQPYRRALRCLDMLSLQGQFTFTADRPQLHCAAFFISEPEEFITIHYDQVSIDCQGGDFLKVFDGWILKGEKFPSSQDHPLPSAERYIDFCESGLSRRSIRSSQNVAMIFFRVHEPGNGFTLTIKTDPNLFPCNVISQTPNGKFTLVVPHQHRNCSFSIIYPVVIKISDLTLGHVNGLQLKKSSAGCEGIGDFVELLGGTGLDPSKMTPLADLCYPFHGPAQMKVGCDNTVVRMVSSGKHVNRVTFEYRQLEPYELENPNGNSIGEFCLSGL

[4] = biological target: T1, Corticotropin-releasing factor receptor 2/Corticotropin-releasing factor-binding protein; test: activators of CRF receptor 2 with binding protein – uHTS hits, confirmation (AID 602473); assay type: functional; details: read-out: EC50_Mean
[5] = Luminescence Cell-Based Dose Confirmation HTS to Identify Activators of 5'UTR Stem-Loop Driven Alpha-Synuclein mRNA Translation in H4 Neuroglioblastoma Cells. [Related pubchem assays: 1829 (Project Summary), 1814 (Primary HTS)]; assay type: functional
[6] = biological target: T2, Streptokinase A (Streptococcus pyogenes serotype M1, UniProt P10520); test: S. pyogenes streptokinase expression inhibitors, potency, dose response, plasminogen activation absorbance, OD405 (AID 1914); assay type: functional, Streptococcus pyogenes M1 GAS;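 also: secreted streptokinase activity via plasminogen activation per viability signal from cell pellet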
T2 sequence (P10520 whole entry): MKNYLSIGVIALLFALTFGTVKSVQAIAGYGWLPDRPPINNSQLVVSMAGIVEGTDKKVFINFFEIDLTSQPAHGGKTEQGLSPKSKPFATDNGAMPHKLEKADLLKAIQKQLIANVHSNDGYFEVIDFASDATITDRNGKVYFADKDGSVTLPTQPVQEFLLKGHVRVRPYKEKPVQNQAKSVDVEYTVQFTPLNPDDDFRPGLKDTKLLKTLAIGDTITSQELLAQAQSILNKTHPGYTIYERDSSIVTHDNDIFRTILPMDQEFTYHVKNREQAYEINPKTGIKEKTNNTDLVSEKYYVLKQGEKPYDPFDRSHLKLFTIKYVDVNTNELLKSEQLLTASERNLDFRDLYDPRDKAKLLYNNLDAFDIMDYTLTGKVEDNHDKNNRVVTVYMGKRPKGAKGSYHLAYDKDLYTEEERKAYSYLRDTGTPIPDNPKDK

[7] = Luminescence Cell-Based Dose Retest to Confirm Inhibitors of Cancer Stem Cells. [Related pubchem assays (depositor defined):AID2717, AID2721]; assay type: functional; details: Homo sapiens
[8] = Luminescence Cell-Based Dose Confirmation HTS to Identify Inhibitors of Platelet Dense Granule Release. [Related pubchem assays: 1663 (Primary HTS), 1678 (Summary of Project)]; assay type: functional
[9] = biological target: Luciferin 4-monooxygenase (Photinus pyralis, UniProt P08659); test: firefly luciferase enzyme inhibitors, dose response, biochemical, luminescence (AID 1891)
Luciferin 4-monooxygenase, sequence (P08659 whole entry): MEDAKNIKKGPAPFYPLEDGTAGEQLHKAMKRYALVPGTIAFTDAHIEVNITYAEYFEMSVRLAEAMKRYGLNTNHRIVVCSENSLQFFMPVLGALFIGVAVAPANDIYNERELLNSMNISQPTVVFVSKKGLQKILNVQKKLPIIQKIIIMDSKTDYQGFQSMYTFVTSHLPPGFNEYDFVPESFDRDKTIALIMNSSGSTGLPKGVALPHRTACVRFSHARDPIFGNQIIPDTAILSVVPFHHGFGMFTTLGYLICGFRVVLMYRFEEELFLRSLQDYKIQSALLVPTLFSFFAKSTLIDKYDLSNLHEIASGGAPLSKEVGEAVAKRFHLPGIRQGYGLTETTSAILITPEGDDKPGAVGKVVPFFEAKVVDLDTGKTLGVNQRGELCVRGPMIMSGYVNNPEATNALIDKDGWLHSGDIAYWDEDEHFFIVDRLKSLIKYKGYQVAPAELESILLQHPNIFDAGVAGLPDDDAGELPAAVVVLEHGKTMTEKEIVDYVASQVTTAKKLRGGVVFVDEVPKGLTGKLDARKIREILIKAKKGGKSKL

[10] = test system: Streptococcus; test: Group A Streptococcus viability loss, dose response, counter-screen for streptokinase expression inhibitor project, luminescence, BacTiterGlo (AID 1915); assay type: functional, organism-based;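 also: potency for reduction of bacterial viability or growth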
[11] = test system: Streptococcus sp. 'group A'; test: growth inhibition of control SK(-) GAS strain, dose response, counter-screen for streptokinase expression inhibitor project, luminescence, kanamycin, BacTiterGlo, confirmation (AID 1900); assay type: functional, organism-based
[12] = biological target: T3, Polyadenylate-binding protein 1 (Homo sapiens, UniProt P11940); test: PABP1 MLLE–PAM2 binding inhibitor potency, dose response, biochemical, fluorescence polarization, FITC-PAM2 peptide (AID 602259); assay type: functional; details: read-out: IC50_Mean
T3 sequence (P11940 whole entry): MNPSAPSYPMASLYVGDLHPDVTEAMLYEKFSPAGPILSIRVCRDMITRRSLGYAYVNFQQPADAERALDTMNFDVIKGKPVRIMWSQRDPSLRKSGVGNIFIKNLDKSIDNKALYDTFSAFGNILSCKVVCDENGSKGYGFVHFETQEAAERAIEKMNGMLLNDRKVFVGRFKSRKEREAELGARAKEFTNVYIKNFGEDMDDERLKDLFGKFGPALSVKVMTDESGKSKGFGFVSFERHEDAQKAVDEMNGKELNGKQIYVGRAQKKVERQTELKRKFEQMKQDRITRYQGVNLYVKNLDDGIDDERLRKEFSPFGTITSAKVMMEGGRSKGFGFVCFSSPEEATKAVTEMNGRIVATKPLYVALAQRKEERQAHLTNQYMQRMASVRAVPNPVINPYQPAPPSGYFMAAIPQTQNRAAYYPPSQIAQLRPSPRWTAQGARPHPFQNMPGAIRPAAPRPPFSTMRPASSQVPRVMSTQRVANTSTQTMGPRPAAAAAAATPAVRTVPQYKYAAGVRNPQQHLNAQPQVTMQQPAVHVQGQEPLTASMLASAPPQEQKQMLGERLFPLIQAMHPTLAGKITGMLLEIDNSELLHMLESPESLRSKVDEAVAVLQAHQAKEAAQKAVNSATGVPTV

[13] = biological target: T3, Polyadenylate-binding protein 1; test: PABP1 MLLE–PAM2 interaction inhibitors, dose response, miRNA deadenylation inhibitor project, biochemical, fluorescence polarization, Cy5-PAM2 peptide, secondary (AID 602260); assay type: functional; details: read-out: IC50_Mean
[14] = growth suppression of PTEN-null colon cells, dose response, cell-based, HCT116 PTEN knockout (AID 1047); assay type: functional;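 also: HCT116 colon tumor cells with PTEN knocked out; cells exposed to compound for 60 hours before readout; potency for loss of cell viability measured by luminescence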
[15] = growth suppression of beta-catenin-knockout colon cells, dose response, cell-based, HCT116, human colon tumor (AID 1045); assay type: functional;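 also: HCT116 colon tumor cells with beta catenin knocked out; cells exposed to compound for 60 hours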
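For AC50 in this document: cells exposed to compound for roughly 70 hours or longer before luminescence read.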

In the case of `CCOc1ccc(C(=O)c2cccs2)cc1`, the EC50 [1] is reported as 11.4 µM (active), the EC50 [2] is reported as 13.5 µM (active) and the IC50 [3] is reported as > 47.1 µM (inactive). For the same compound, the EC50 [4] was > 53 µM (inactive) and the EC50 [5] was 55 µM (active).

With `Cc1ccc(S(=O)(=O)CNC(=S)c2ccc3ccccc3c2)cc1` the EC50 [6] was > 150 µM (not active).

In the case of `COC(=O)c1ccc(/C=C/c2c(-c3ccc(OC)cc3)sc3ccccc23)cc1`, the AC50 [7] is reported as 3.79 µM (active).

With `O=c1c2ccccc2nc(/C=C/c2ccc(Br)cc2)n1CCO` the AC50 [7] was 10.5 µM (active).

In the case of `O=C1NC(=S)N=C1c1c(O)[nH]c2ccccc12`, the EC50 [8] is reported as > 112 µM (not active) and the EC50 [9] is reported as > 112 µM (not active).

With `CCCn1c(NC(=O)c2cccc(C)c2C)nc2ccccc21` the EC50 [10] was > 150 µM (not active), the EC50 [11] was 7.43 µM (active) and the EC50 [6] was > 150 µM (not active).

For `COC(=O)c1cc(-c2ccc(OC)cc2F)nc2nc(SC)nc(O)c12`, the EC50 [10] was 23.3 µM (active), the EC50 [11] was 8.08 µM (active) and the EC50 [6] was > 150 µM (not active).

With `Cc1ccc2c(c1)c1ncn(CCC3=CCCCC3)c(=O)c1n2C` the AC50 [7] was 1 µM (active).

In the case of `N#Cc1nc(-c2ccc(OCc3ccccc3Cl)cc2)oc1NCCCn1ccnc1`, the EC50 [10] is reported as > 150 µM (not active), the EC50 [11] is reported as 4.38 µM (active) and the EC50 [6] is reported as 16.6 µM (active).

For `CC(=O)c1cccc(S(=O)(=O)N2CCN(CCOc3ccccc3)CC2)c1`, the IC50 [12] was > 66 µM (inactive) and the IC50 [13] was > 66 µM (inactive).

For `O=C1CSC(=S)N1c1cccnc1`, the IC50 [12] was > 66 µM (inactive) and the IC50 [13] was > 66 µM (inactive).

With `CCOc1ccccc1NC(=O)CSc1nnc(-c2cccnc2)o1` the IC50 [12] was > 66 µM (inactive) and the IC50 [13] was > 66 µM (inactive).

With `Cn1cc([N+](=O)[O-])c(C(=O)Nc2ccc(Br)cn2)n1` the EC50 [14] was 5.55 µM (active) and the EC50 [15] was 4.91 µM (active).

With `CS(=O)(=O)c1ccc([C@@H](O)[C@@H](CO)NC(=O)C(Cl)Cl)cc1` [THIAMPHENICOL] the EC50 [10] was 4.55 µM (active), the EC50 [11] was 1.89 µM (active) and the EC50 [6] was 4.02 µM (active).

In the case of `COc1c(F)c(F)c(-c2csc(N)n2)c(F)c1F`, the IC50 [12] is reported as > 66 µM (inactive) and the IC50 [13] is reported as > 66 µM (inactive).

For `COc1ccc(Cn2c(-c3ccco3)nc3oc4ccccc4c(=O)c3c2=O)cc1`, the EC50 [10] was 86.5 µM (active), the EC50 [11] was 12.1 µM (active) and the EC50 [6] was > 150 µM (not active).

For `CCc1cccc(NC(=O)CN(C)S(=O)(=O)c2c[nH]cn2)c1`, the EC50 [8] was > 112 µM (not active) and the EC50 [9] was > 112 µM (not active).

In the case of `CC1=NC2=C(C(=O)CCC2)C(c2cc3c(cc2Br)OCO3)/C1=C(\O)OCCOC(C)C` (stereo unspecified), the IC50 [12] is reported as > 66 µM (inactive) and the IC50 [13] is reported as > 66 µM (inactive).

In the case of `COc1ccc(C2=NOC(CNC(N)=S)C2)cc1` (stereo unspecified), the EC50 [6] is reported as > 150 µM (not active).
